Results from patent publication US11116771B2, “G protein-coupled receptor (GPCR) modulation by imipridones” (Oncoceutics, Inc., priority 2016, dated 2021).
Values after ≈ are worked out from the molar mass of the structure shown. “Also recorded” adds a separate entry of the source. Like-named read-outs stand apart in the source and are kept apart here. Each block holds one molecule with its values, some of them ahead of it.

Experiments:
human cancer cells = experiment: Viability of human cancer cells at 72 hours post-treatment; type: cell-based; conditions: relative to the potency of ONC201; viability of human cancer cells at 72 hours post-treatment
normal cells = experiment: In vitro toxicity to normal cells; type: cell-based; conditions: FIG. 33
[1] = Mouse tolerability (non-GLP oral single dose / MTD study); type: in vivo; conditions: in vivo; mouse; non-GLP oral single dose study / MTD study
Procedure: ONC212 25 mg/kg represents NOAEL in mouse and rat non-GLP oral single dose studies which is also the efficacious dose in mouse xenograft studies. […].
Dual targeting of DRD2/3 and GPR132/91 represents a novel strategy for anti-cancer efficacy without toxicity. […] […]. […] […].

[2] = system: DRD2 (short and long isoforms); experiment: β-arrestin recruitment GPCR reporter assay, DRD2; type: cell-based
DRD3 = DRD3 (Homo sapiens, UniProt P35462); experiment: β-arrestin recruitment GPCR reporter assay, DRD3; type: cell-based
Sequence of DRD3 (P35462 whole entry): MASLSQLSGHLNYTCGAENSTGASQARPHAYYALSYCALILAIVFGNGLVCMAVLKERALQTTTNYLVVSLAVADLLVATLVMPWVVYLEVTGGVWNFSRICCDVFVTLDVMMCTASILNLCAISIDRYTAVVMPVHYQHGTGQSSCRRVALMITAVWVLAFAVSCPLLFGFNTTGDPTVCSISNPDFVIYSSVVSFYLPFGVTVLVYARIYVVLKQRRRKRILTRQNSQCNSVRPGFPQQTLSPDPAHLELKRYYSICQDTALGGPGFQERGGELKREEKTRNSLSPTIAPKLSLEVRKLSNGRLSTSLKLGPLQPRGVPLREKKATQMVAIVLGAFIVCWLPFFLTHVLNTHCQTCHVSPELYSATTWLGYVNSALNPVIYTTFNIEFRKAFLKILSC

GPR132 = target: T1, GPR132 (Homo sapiens, UniProt Q9UNW8); experiment: β-arrestin recruitment GPCR reporter assay, GPR132; type: cell-based
T1 sequence (Q9UNW8 1-380): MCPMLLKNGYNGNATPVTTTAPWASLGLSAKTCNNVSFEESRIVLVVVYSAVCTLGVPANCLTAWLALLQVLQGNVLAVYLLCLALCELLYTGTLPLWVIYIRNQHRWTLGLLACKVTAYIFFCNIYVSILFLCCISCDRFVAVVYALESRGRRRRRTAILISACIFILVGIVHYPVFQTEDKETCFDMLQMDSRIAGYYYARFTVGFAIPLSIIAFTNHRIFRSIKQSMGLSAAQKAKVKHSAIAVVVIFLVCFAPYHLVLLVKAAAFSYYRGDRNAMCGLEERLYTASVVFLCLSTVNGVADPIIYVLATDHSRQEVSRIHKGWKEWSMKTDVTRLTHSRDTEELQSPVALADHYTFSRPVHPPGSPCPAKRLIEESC

GPR91 = GPR91 (Homo sapiens, UniProt Q9BXA5); experiment: β-arrestin recruitment GPCR reporter assay, GPR91; type: cell-based
Sequence of GPR91 (Q9BXA5 whole entry): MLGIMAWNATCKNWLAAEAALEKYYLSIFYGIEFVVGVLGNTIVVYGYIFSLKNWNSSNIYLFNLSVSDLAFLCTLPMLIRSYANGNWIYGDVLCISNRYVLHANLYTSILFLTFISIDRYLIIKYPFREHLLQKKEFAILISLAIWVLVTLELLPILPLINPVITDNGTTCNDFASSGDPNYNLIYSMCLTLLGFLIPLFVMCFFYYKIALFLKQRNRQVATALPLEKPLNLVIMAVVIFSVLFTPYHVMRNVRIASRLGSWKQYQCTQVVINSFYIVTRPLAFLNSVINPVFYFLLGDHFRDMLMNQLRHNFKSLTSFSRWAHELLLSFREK

[3] = system: Staphylococcus aureus ATCC 29213; experiment: MIC by micro-broth dilution, S. aureus ATCC 29213; type: cell-based; conditions: ATCC29213
[4] = system: Staphylococcus aureus ATCC 33591; experiment: MIC by micro-broth dilution, S. aureus ATCC 33591; type: cell-based; conditions: ATCC33591
[5] = system: Staphylococcus aureus ATCC 700699; experiment: MIC by micro-broth dilution, S. aureus ATCC 700699; type: cell-based; conditions: Staphylococcus aureus, ATCC700699, ATCC 700699 (48 hours)
DRD5 = DRD5 (Homo sapiens, UniProt P21918); experiment: β-arrestin recruitment GPCR reporter assay, DRD5; type: cell-based; conditions: arrestin recruitment reporter assay
Sequence of DRD5 (P21918 whole entry): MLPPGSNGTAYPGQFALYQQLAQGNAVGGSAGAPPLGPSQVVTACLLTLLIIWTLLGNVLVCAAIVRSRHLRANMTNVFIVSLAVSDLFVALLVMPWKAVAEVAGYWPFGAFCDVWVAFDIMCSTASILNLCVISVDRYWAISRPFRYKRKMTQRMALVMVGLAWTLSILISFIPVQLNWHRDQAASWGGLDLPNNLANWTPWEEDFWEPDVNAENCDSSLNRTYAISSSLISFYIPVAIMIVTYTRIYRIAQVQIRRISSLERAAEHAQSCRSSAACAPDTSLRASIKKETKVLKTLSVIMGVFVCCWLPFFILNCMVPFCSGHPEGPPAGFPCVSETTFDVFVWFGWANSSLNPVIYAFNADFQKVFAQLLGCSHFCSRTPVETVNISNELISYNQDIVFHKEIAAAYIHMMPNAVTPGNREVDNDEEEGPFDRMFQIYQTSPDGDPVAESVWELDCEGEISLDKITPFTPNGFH

CXCR7 = CXCR7 (Homo sapiens, UniProt P25106); experiment: β-arrestin recruitment GPCR reporter assay, CXCR7; type: cell-based
Sequence of CXCR7 (P25106 whole entry): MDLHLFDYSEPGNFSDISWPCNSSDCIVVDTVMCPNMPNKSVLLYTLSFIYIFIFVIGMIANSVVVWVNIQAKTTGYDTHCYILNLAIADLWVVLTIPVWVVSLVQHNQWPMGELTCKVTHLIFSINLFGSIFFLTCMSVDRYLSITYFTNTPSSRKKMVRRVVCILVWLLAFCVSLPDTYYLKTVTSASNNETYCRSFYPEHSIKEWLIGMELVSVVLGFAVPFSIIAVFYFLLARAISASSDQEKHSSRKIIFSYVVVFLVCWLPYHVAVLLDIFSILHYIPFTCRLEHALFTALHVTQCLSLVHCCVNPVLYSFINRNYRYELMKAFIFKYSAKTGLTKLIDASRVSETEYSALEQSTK

GPCRs = experiment: GPCR profiling by arrestin recruitment reporter assay (panel); type: cell-based; conditions: 10 μM

SMILES: O=C1C2=C(CCN(Cc3ccccc3)C2)N2CCN=C2N1Cc1ccc(F)c(F)c1 [ONC213]
Relative Potency* (human cancer cells): A (A Indicates a potency increase of >2-fold of ONC201) | in vitro toxicity to normal cells (normal cells): reduced compared to ONC212 | NOAEL [1]: 75 mg/kg | GPCR activity, DRD2 [2]: DRD2/3 inhibitor; also recorded: more than ONC201 but less than ONC206 | GPCR activity, DRD3 (DRD3): DRD2/3 inhibitor; also recorded: more than ONC201 but less than ONC206 | GPCR activity, GPR132 (GPR132): less than ONC212; also recorded: GPR132/91 agonist | GPCR activity, GPR91 (GPR91): GPR132/91 agonist | MIC ([3]; wild type Staphylococcus aureus (ATCC 29213), read-out: MIC): 25 mg/L (≈ 61.2 µM) | MIC90 ([3]; Staphylococcus aureus, ATCC 29213, 24 hours, read-out: MIC90): 12.5 mg/L (≈ 30.6 µM) | MIC ([3]; Staphylococcus aureus, ATCC 29213, 24 hours, read-out: MIC95): 12.5 mg/L (≈ 30.6 µM) | MIC99 ([3]; Staphylococcus aureus, ATCC 29213, 24 hours, read-out: MIC99): 25 mg/L (≈ 61.2 µM) | MIC ([3]; Staphylococcus aureus, ATCC 29213, 24 hours, read-out: MIC, Visual): 25 mg/L (≈ 61.2 µM) | MIC ([4]; Staphylococcus aureus (ATCC 33591), methicillin resistant, read-out: MIC): 3.13 mg/L (≈ 7.66 µM) | MIC90 ([4]; Staphylococcus aureus, ATCC 33591, 24 hours, read-out: MIC90): 3.13 mg/L (≈ 7.66 µM) | MIC ([4]; Staphylococcus aureus, ATCC 33591, 24 hours, read-out: MIC95): 6.25 mg/L (≈ 15.3 µM) | MIC99 ([4]; Staphylococcus aureus, ATCC 33591, 24 hours, read-out: MIC99): 100 mg/L (≈ 245 µM) | MIC ([4]; Staphylococcus aureus, ATCC 33591, 24 hours, read-out: MIC, Visual): 3.12 mg/L (≈ 7.65 µM) | MIC90 ([5]; read-out: MIC90): 6.25 mg/L (≈ 15.3 µM) | MIC ([5]; read-out: MIC95): 12.5 mg/L (≈ 30.6 µM) | MIC99 ([5]; read-out: MIC99): 12.5 mg/L (≈ 30.6 µM) | MIC ([5]; read-out: MIC, Visual): 12.5 mg/L (≈ 30.6 µM)

GPCR activity, DRD5 (DRD5): antagonist activity | GPCR activity, CXCR7 (CXCR7): CXCR7 agonist activity
SMILES: O=C1C2=C(CCN(Cc3ccc(Cl)c(Cl)c3)C2)N2CCN=C2N1Cc1ccc(C(F)(F)F)cc1 [ONC234]
Relative Potency* (human cancer cells): A (A Indicates a potency increase of >2-fold of ONC201) | GPCR activity, DRD2 [2]: antagonist activity | GPCR profile / selectivity (GPCRs): broad spectrum and potent GPCR targeting small molecule
